Values after ≈ are worked out from the molar mass of the structure shown.
Columns and labels:
[1] = test system: P. chabaudi AS; assay: Standard 4-day Peters' test against P. chabaudi AS in mice; assay type: in vivo, Plasmodium chabaudi; settings: Plasmodium chabaudi, 96 h, oral, 4-day Peters' test; for ED50: 50% reduction in parasitaemia; for ED90: 90% reduction in parasitaemia
Method: (§1) Briefly, 20 gr CD1 male mice (Charles Rivers, UK) were kept in specific pathogen-free conditions and fed ad libitum. For oral administration, compounds were dissolved in standard suspending formula (SSV) [0.5% sodium carboxymethylcellulose, 0.5% benzyl alcohol, 0.4% Tween 80, 0.9% NaCl (all Sigma)] and for intraperitoneal or subcutaneous administration compounds were dissolved in 0.5% w/v hydroxypropylmethylcellulose, 0.4% v/v Tween 80, 0.5% V/v benzyl alcohol in de-ionised water]. Mice were infected intravenously with 4×10^6 infected red cells and treated orally (p.o.) with 0.2 ml of a solution of the test compounds two hours (day 0) and on days 1, 2 and 3 post-infection. Parasitaemia was determined by microscopic examination of Giemsa stained blood films taken on day 4. Microscopic counts of blood films from each mouse were processed using GraphPad Prism 4 (GraphPad Software, Inc., CA, USA) and expressed as percentages of inhibition from the arithmetic mean parasitaemias of each group in relation to the untreated group. Compounds were tested in an initial screening at 30 mg/kg/day against P. chabaudi AS (non-resistant) over the period described and percentages of inhibition calculated in relation to the untreated controls. Compounds giving 80% inhibition or above were then tested in the same model under a range of doses over the period described in order to obtain dose response curves and calculate their ED50 and ED90 values. […] From the ED90 values is clear that a number of compounds have exquisite activity in this model and are also tested in P. chabaudi ASP and P. berghei ANKA.

[2] = test system: S. aureus; assay: Antibacterial activity, minimal inhibitory concentration on agar plates; assay type: cell-based; settings: Staphylococcus aureus; complete inhibition of growth on agar plates
[3] = test system: E. coli; assay: as above; assay type: cell-based; settings: Escherichia coli; complete inhibition of growth on agar plates
[4] = molecular target: T1, Pf DHFR WT (Plasmodium falciparum, UniProt A7UD81); assay: Pf DHFR enzyme inhibition (Ki), wild type; assay type: biochemical
T1 construct: made in house; host or cells: E. coli BL21(DE3)pLysS

[5] = molecular target: T2, Pf DHFR C59R + S108N (Plasmodium falciparum, UniProt A7UD81, C59R/S108N); assay: biochemical
T2 construct: made in house; host or cells: E. coli BL21(DE3)pLysS

[6] = molecular target: T3, Pf DHFR N51I + C59R + S108N (Plasmodium falciparum, UniProt A7UD81, C59R/N51I/S108N); assay: biochemical
T3 construct: made in house; host or cells: E. coli BL21(DE3)pLysS

[7] = molecular target: T4, Pf DHFR C59R + S108N + I164L (Plasmodium falciparum, UniProt A7UD81, C59R/I164L/S108N); assay: biochemical
T4 construct: made in house; host or cells: E. coli BL21(DE3)pLysS

[8] = molecular target: T5, Pf DHFR N51I + C59R + S108N + I164L (Plasmodium falciparum, UniProt A7UD81, C59R/I164L/N51I/S108N); assay: biochemical
T5 construct: made in house; host or cells: E. coli BL21(DE3)pLysS

[9] = test system: P. falciparum TM4/8.2 (wild type); assay: In vitro anti-plasmodial activity, [3H]-hypoxanthine incorporation; assay type: cell-based, Plasmodium falciparum; settings: Plasmodium falciparum, read-out: IC50-P. falciparum TM4/8.2 (WT), TM4/8.2
[10] = Cytotoxicity in mammalian cells; assay type: cell-based; settings: African green monkey, Vero cells (African green monkey kidney epithelial cells)
[11] = Oral bioavailability and pharmacokinetics in male Sprague Dawley rats; assay type: in vivo; settings: for Oral BA: i.v. and oral dosing; for Vd: intravenous; for clearance: read-out: i.v. CL(plasma)
Method: Rats had free access to water throughout the pre- and post-dose sampling period, and access to food was re-instated 4 hours post-dosing. Test compounds were administered intravenously as a 5 minute constant rate infusion (1.0 mL per rat) and orally by gavage (1.0 mL per rat). The IV formulations were typically buffered aqueous solutions containing a co-solvent if required for solubilization. The oral formulations were prepared as suspensions in hydroxypropylmethyl cellulose or carboxymethyl cellulose, each with the addition of Tween 80 and benzyl alcohol. Samples of arterial blood and total urine were collected up to 24 hours post-dose. Arterial blood was collected directly into borosilicate vials (at 4° C.) containing heparin, a protease inhibitor cocktail, potassium fluoride, and EDTA to minimise the potential for ex vivo degradation of the test compound in blood/plasma samples. Once collected, blood samples were centrifuged, supernatant plasma was removed and stored at −20° C., and plasma concentrations of test compound were determined by LCMS.

[12] = test system: P. chabaudi ASP; assay: Standard 4-day Peters' test against P. chabaudi ASP (pyrimethamine-resistant) in mice; assay type: in vivo, Plasmodium chabaudi
Method: as §1

[13] = test system: P. berghei ANKA; assay: Standard 4-day Peters' test against P. berghei ANKA in mice; assay type: in vivo, Plasmodium berghei; settings: oral, lethal non-resistant strain
Method: as §1

T2 sequence (A7UD81 whole entry C59R/S108N): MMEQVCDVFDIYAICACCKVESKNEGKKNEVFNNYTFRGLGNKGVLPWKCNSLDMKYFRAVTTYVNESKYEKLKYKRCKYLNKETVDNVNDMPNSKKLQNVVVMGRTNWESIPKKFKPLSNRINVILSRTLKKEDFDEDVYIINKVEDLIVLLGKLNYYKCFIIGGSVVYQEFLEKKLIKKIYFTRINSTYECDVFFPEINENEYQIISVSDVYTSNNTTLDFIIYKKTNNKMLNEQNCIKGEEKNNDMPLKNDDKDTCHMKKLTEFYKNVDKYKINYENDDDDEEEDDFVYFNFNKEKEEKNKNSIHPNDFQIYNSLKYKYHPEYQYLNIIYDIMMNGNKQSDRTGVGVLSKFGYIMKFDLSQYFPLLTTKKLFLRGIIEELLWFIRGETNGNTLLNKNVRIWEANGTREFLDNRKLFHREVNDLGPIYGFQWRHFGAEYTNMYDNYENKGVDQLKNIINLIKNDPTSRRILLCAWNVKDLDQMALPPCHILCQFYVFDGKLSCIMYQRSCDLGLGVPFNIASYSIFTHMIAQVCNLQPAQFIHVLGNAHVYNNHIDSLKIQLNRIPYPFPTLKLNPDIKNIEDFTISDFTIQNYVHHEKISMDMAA
T5 sequence (A7UD81 whole entry N51I/C59R/S108N/I164L): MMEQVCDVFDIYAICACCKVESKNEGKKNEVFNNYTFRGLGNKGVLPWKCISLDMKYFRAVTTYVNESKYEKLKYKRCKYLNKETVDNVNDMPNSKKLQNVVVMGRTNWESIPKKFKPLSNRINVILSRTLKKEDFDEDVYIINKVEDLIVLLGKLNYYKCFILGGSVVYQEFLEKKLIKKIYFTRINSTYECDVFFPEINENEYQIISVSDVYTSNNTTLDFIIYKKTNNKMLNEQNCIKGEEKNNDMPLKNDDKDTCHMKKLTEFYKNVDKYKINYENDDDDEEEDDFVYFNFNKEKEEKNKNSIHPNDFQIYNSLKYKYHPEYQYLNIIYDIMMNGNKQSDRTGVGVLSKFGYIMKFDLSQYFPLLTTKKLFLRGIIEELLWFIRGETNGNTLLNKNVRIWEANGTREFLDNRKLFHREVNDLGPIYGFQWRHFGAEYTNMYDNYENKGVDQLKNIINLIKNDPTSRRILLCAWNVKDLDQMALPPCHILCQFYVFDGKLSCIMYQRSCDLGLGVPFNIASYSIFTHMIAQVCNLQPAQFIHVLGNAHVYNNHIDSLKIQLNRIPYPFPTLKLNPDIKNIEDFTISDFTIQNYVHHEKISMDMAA
T4 sequence (A7UD81 whole entry C59R/S108N/I164L): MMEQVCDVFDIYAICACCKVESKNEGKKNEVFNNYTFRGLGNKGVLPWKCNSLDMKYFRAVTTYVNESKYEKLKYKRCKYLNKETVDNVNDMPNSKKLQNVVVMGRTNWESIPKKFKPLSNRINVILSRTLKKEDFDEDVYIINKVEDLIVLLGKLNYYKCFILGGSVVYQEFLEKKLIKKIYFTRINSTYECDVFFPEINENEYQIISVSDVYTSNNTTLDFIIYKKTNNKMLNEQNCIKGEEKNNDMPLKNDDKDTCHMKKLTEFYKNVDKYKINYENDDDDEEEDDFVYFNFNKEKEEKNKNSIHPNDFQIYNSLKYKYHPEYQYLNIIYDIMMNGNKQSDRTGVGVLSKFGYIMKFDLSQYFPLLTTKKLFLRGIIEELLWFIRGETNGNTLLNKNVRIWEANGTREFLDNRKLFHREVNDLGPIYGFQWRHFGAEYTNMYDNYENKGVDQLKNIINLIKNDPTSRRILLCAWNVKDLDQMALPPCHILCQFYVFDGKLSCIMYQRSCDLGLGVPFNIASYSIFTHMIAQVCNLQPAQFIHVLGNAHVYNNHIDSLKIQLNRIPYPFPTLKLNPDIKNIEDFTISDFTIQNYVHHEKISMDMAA
T3 sequence (A7UD81 whole entry N51I/C59R/S108N): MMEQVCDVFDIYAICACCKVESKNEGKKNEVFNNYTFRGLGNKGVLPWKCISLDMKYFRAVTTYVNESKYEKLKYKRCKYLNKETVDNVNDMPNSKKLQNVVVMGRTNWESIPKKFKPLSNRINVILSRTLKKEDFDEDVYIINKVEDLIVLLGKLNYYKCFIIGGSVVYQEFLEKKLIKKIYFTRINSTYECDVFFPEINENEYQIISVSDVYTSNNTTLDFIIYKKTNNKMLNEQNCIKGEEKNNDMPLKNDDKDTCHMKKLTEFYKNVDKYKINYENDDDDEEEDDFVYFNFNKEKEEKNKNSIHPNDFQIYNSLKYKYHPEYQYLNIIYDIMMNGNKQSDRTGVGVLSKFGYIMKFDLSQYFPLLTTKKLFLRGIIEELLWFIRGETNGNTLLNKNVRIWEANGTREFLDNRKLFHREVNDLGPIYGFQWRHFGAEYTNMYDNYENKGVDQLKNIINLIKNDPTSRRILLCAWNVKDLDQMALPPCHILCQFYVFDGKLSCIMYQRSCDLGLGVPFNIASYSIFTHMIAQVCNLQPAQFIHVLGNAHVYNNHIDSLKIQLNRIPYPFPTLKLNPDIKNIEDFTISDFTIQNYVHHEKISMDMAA
T1 sequence (A7UD81 1-608): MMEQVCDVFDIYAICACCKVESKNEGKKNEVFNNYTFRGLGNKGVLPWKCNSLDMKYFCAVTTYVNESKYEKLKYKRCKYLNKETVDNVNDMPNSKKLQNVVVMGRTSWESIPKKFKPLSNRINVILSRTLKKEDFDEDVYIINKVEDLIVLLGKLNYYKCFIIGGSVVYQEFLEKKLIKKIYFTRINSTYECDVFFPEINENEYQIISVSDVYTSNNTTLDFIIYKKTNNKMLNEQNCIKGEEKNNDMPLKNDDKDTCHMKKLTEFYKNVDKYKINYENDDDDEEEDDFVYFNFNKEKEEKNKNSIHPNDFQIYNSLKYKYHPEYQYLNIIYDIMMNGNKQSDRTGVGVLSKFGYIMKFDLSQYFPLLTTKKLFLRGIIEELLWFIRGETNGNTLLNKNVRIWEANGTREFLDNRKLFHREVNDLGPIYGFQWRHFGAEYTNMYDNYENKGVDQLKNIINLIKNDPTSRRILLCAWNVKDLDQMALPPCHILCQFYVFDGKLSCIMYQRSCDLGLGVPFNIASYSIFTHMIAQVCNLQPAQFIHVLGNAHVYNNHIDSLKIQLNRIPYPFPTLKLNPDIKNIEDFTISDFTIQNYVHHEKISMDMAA

| SMILES | ED50 [1] [mg/kg] | ED90 [1] [mg/kg] | MIC [2] [µM] | MIC [3] [µM] | Ki [4] [nM] | Ki [5] [nM] | Ki [6] [nM] | Ki [7] [nM] | Ki [8] [nM] | IC50 [9] [nM] | IC50 [10] [nM] | Oral BA [11] | Vd ([11]; rat, plasma) [L/kg] | clearance ([11]; rat, plasma, iv, i.v. dosing) [mL/min/kg] | half-life ([11]; rat, plasma, iv, i.v. dosing, read-out: i.v. t1/2 (converted)) [h] | ED50 ([12]; Plasmodium chabaudi, po, read-out: ED50 P. chabaudi ASP) [mg/kg] | ED90 P. chabaudi ASP ([12]; oral, pyrimethamine-resistant strain) [mg/kg] | ED50 ([13]; Plasmodium berghei) [mg/kg] | ED90 P. berghei ANKA [13] [mg/kg] |
| --- | --- | --- | --- | --- | --- | --- | --- | --- | --- | --- | --- | --- | --- | --- | --- | --- | --- | --- | --- |
| CCc1nc(N)nc(N)c1OCCCOc1ccccc1OCCCC(=O)O [Compound P135, 2,4-diamino-6-ethyl-5-(3-(2-(3-carboxypropoxy)phenoxy)propoxy)pyrimidine] | 2 | 5.2 | > 50 | > 50 | 0.72 ± 0.03 | 0.98 ± 0.003 | 1.2 ± 0.05 | 2.54 ± 0.04 | 3.47 ± 0.09 | 1.6 ± 0.6 | > 10000 | 7.0 % of dose | 1.6 | 49.1 |  |  |  |  |  |
| CCc1nc(N)nc(N)c1OCCCOc1ccnc2ccc(Cl)cc12 [Compound P149, 2,4-diamino-6-ethyl-5-(3-(6-chloro-quinolin-4-yloxy)propoxy)pyrimidine] | 0.01 | 0.02 | 1 to 10 (≈ 0.374 to 3.74 µg/mL) | 10 to 50 (≈ 3.74 to 18.7 µg/mL) | 1.05 ± 0.18 | 2.37 ± 0.16 | 3.4 ± 0.15 | 3.66 ± 0.48 | 4.23 ± 1.06 | 3.2 ± 0.7 |  | 10 % of dose | 51.2 | 66.3 | 24.3 |  |  |  |  |
| CCc1nc(N)nc(N)c1OCCCOc1ccnc2ccccc12 [Compound P113, 2,4-diamino-6-ethyl-5-(3-(quinolin-4-yloxy)propoxy)pyrimidine] | 0.006 | 0.01 |  |  | 1.21 ± 0.17 | 1.86 ± 0.11 | 1.82 ± 0.17 | 3.06 ± 0.21 | 4.33 ± 0.28 | 4 ± 3 | 119 | <2.0 % of dose |  |  |  | 0.003 | 0.01 | 0.01 | 0.03 |

Reference: patent publication US8530491B2, “Antimalarial compounds with flexible side-chains” (Medicines for Malaria Venture (MMV), priority 2007, dated 2013)
